# Legend:
# Assay type in all cases: cell-based
# [1] = system: Ba/F3 LMNA-NTRK1-G595R cells; assay: Assay for inhibiting the proliferation of Ba/F3 LMNA-NTRK1-G595R cells (CCK-8); settings: Mus musculus, BaF3
# Summary of the method: (§1)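 Cells seeded in 96-well plates overnight, then exposed 72 h to 9 three-fold dilutions of compound (0.25% DMSO final). Viability by CCK-8 (1-2 h at 37° C., OD 450 nm), survival normalized to untreated and cell-free blanks; IC50 by curve fitting.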
# MHCC97H cells = assay: Assay for inhibiting the proliferation of MHCC97H cells (CCK-8); settings: Homo sapiens
# Summary of the method: as §1
# EBC1 cells = assay: Assay for inhibiting the proliferation of EBC1 cells (CCK-8); settings: Homo sapiens, EBC-1
# Summary of the method: as §1
Structure (SMILES),IC50 [1] [nM],IC50 (MHCC97H cells) [nM],IC50 (EBC1 cells) [nM]
"Cn1cc(C(=O)Nc2ccc(Oc3ccnc4cc(OCCCN5CCOCC5)c5c(c34)OCCO5)c(F)c2)c(=O)n(-c2ccc(F)cc2)c1=O [Example 15, N-(3-fluoro-4-((5-(3-morpholinopropoxy)-2,3-dihydro-[1,4]dioxino[2,3-f]quinolin-10-yl)oxy)phenyl)-3-(4-fluorophenyl)-1-methyl-2,4-dioxo-1,2,3,4-tetrahydropyrimidine-5-carboxamide]",50 to 200,≤ 50,≤ 50
"CCn1cc(C(=O)Nc2ccc(Oc3ccnc4cc(OCCCN5CCCCC5)c5c(c34)OCCO5)c(F)c2)c(=O)n(-c2ccc(F)cc2)c1=O [Example 41, N-(3-fluoro-4-((5-(3-(piperidin-1-yl)propoxy)-2,3-dihydro-[1,4]dioxino[2,3-f]quinolin-10-yl)oxy)phenyl)-3-(4-fluorophenyl)-1-ethyl-2,4-dioxo-1,2,3,4-tetrahydropyrimidine-5-carboxamide]",50 to 200,50 to 200,≤ 50
"COc1cc2nccc(Oc3cc(Cl)c(NC(=O)c4cn(C)c(=O)n(-c5ccc(F)cc5)c4=O)cc3F)c2c2c1OCCO2 [Example 116, N-(2-chloro-5-fluoro-4-((5-methoxy-2,3-dihydro-[1,4]dioxino[2,3-f]quinolin-10-yl)oxy)phenyl)-3-(4-fluorophenyl)-1-methyl-2,4-dioxo-1,2,3,4-tetrahydropyrimidine-5-carboxamide]",≤ 50,50 to 200,≤ 50
"Cn1cc(C(=O)Nc2ccc(Oc3ccnc4cc(OCC(C)(C)O)c5c(c34)OCCO5)cc2Cl)c(=O)n(-c2ccc(F)cc2)c1=O [Example 141, N-(2-chloro-4-((5-(2-hydroxy-2-methylpropoxy)-2,3-dihydro-[1,4]dioxino[2,3-f]quinolin-10-yl)oxy)phenyl)-3-(4-fluorophenyl)-1-methyl-2,4-dioxo-1,2,3,4-tetrahydropyrimidine-5-carboxamide]",50 to 200,,
"CCn1cc(C(=O)Nc2ccc(Oc3ccnc4cc(OC)c5c(c34)OCCO5)cc2)c(=O)n(-c2ccc(F)cc2)c1=O [Example 146, N-(4-((5-methoxy-2,3-dihydro-[1,4]dioxino[2,3-f]quinolin-10-yl)oxy)phenyl)-3-(4-fluorophenyl)-1-ethyl-2,4-dioxo-1,2,3,4-tetrahydropyrimidine-5-carboxamide]",200 to 1000,,
"COCCOc1cc2nccc(Oc3ccc(NC(=O)c4cn(C)c(=O)n(-c5ccc(F)cc5)c4=O)cc3)c2c2c1OCCO2 [Example 147, N-(4-((5-(2-methoxyethoxy)-2,3-dihydro-[1,4]dioxino[2,3-f]quinolin-10-yl)oxy)phenyl)-3-(4-fluorophenyl)-1-methyl-2,4-dioxo-1,2,3,4-tetrahydropyrimidine-5-carboxamide]",50 to 200,,
"CCn1cc(C(=O)Nc2ccc(Oc3ccnc4cc(OCCOC)c5c(c34)OCCO5)cc2)c(=O)n(-c2ccc(F)cc2)c1=O [Example 148, N-(4-((5-(2-methoxyethoxy)-2,3-dihydro-[1,4]dioxino[2,3-f]quinolin-10-yl)oxy)phenyl)-3-(4-fluorophenyl)-1-ethyl-2,4-dioxo-1,2,3,4-tetrahydropyrimidine-5-carboxamide]",200 to 1000,,
"Cn1cc(C(=O)Nc2ccc(Oc3ccnc4cc(OCC(C)(C)O)c5c(c34)OCCO5)cc2)c(=O)n(-c2ccc(F)cc2)c1=O [Example 149, N-(4-((5-(2-hydroxy-2-methylpropoxy)-2,3-dihydro-[1,4]dioxino[2,3-f]quinolin-10-yl)oxy)phenyl)-3-(4-fluorophenyl)-1-methyl-2,4-dioxo-1,2,3,4-tetrahydropyrimidine-5-carboxamide]",> 1000,,
"CCn1cc(C(=O)Nc2ccc(Oc3ccnc4cc(OCC(C)(C)O)c5c(c34)OCCO5)cc2)c(=O)n(-c2ccc(F)cc2)c1=O [Example 150, N-(4-((5-(2-hydroxy-2-methylpropoxy)-2,3-dihydro-[1,4]dioxino[2,3-f]quinolin-10-yl)oxy)phenyl)-3-(4-fluorophenyl)-1-ethyl-2,4-dioxo-1,2,3,4-tetrahydropyrimidine-5-carboxamide]",> 1000,,
"COCCOc1cc2nccc(Oc3ccc(NC(=O)c4cn(C)c(=O)n(-c5ccc(F)cc5)c4=O)c(F)c3)c2c2c1OCCO2 [Example 155, N-(2-fluoro-4-((5-(2-methoxyethoxy)-2,3-dihydro-[1,4]dioxino[2,3-f]quinolin-10-yl)oxy)phenyl)-3-(4-fluorophenyl)-1-methyl-2,4-dioxo-1,2,3,4-tetrahydropyrimidine-5-carboxamide]",≤ 50,,
"CCn1cc(C(=O)Nc2ccc(Oc3ccnc4cc(OCCOC)c5c(c34)OCCO5)cc2F)c(=O)n(-c2ccc(F)cc2)c1=O [Example 156, N-(2-fluoro-4-((5-(2-methoxyethoxy)-2,3-dihydro-[1,4]dioxino[2,3-f]quinolin-10-yl)oxy)phenyl)-3-(4-fluorophenyl)-1-ethyl-2,4-dioxo-1,2,3,4-tetrahydropyrimidine-5-carboxamide]",50 to 200,,
"COCCOc1cc2nccc(Oc3cc(C)c(NC(=O)c4cn(C)c(=O)n(-c5ccc(F)cc5)c4=O)cc3F)c2c2c1OCCO2 [Example 179, N-(5-fluoro-4-((5-(2-methoxyethoxy)-2,3-dihydro-[1,4]dioxino[2,3-f]quinolin-10-yl)oxy)-2-methylphenyl)-3-(4-fluorophenyl)-1-methyl-2,4-dioxo-1,2,3,4-tetrahydropyrimidine-5-carboxamide]",≤ 50,≤ 50,

# More lines, main results first:
IC50 [1] [nM],Structure (SMILES),IC50 (MHCC97H cells) [nM],IC50 (EBC1 cells) [nM]
50 to 200,"Cn1cc(C(=O)Nc2ccc(Oc3ccnc4cc(OCCCN5CCCCC5)c5c(c34)OCCO5)c(F)c2)c(=O)n(-c2ccc(F)cc2)c1=O [Example 39, N-(3-fluoro-4-((5-(3-(piperidin-1-yl)propoxy)-2,3-dihydro-[1,4]dioxino[2,3-f]quinolin-10-yl)oxy)phenyl)-3-(4-fluorophenyl)-1-methyl-2,4-dioxo-1,2,3,4-tetrahydropyrimidine-5-carboxamide]",50 to 200,≤ 50
50 to 200,"COCCOc1cc2nccc(Oc3ccc(NC(=O)c4cn(C)c(=O)n(-c5ccc(F)cc5)c4=O)cc3F)c2c2c1OCCO2 [Example 42, N-(3-fluoro-4-((5-(2-methoxyethoxy)-2,3-dihydro-[1,4]dioxino[2,3-f]quinolin-10-yl)oxy)phenyl)-3-(4-fluorophenyl)-1-methyl-2,4-dioxo-1,2,3,4-tetrahydropyrimidine-5-carboxamide]",≤ 50,≤ 50
≤ 50,"Cn1cc(C(=O)Nc2ccc(Oc3ccnc4cc(OCCCN5CCCCC5)c5c(c34)OCCO5)cc2Cl)c(=O)n(-c2ccc(F)cc2)c1=O [Example 137, N-(2-chloro-4-((5-((3-piperidin-1-yl)propoxy)-2,3-dihydro-[1,4]dioxino[2,3-f]quinolin-10-yl)oxy)phenyl)-3-(4-fluorophenyl)-1-methyl-2,4-dioxo-1,2,3,4-tetrahydropyrimidine-5-carboxamide]",,
> 1000,"COc1cc2nccc(Oc3ccc(NC(=O)c4cn(C)c(=O)n(-c5ccc(F)cc5)c4=O)cc3)c2c2c1OCCO2 [Example 145, N-(4-((5-methoxy-2,3-dihydro-[1,4]dioxino[2,3-f]quinolin-10-yl)oxy)phenyl)-3-(4-fluorophenyl)-1-methyl-2,4-dioxo-1,2,3,4-tetrahydropyrimidine-5-carboxamide]",,
≤ 50,"COc1cc2nccc(Oc3ccc(NC(=O)c4cn(C)c(=O)n(-c5ccc(F)cc5)c4=O)c(F)c3)c2c2c1OCCO2 [Example 153, N-(2-fluoro-4-((5-methoxy-2,3-dihydro-[1,4]dioxino[2,3-f]quinolin-10-yl)oxy)phenyl)-3-(4-fluorophenyl)-1-methyl-2,4-dioxo-1,2,3,4-tetrahydropyrimidine-5-carboxamide]",,
50 to 200,"Cn1cc(C(=O)Nc2ccc(Oc3ccnc4ccc5c(c34)OCCO5)cc2F)c(=O)n(-c2ccc(F)cc2)c1=O [Example 162, N-(4-((2,3-dihydro-[1,4]dioxino[2,3-f]quinolin-10-yl)oxy)-2-fluorophenyl)-3-(4-fluorophenyl)-1-methyl-2,4-dioxo-1,2,3,4-tetrahydropyrimidine-5-carboxamide]",,
≤ 50,"COc1cc2nccc(Oc3cc(C)c(NC(=O)c4cn(C)c(=O)n(-c5ccc(F)cc5)c4=O)cc3F)c2c2c1OCCO2 [Example 177, N-(5-fluoro-4-((5-methoxy-2,3-dihydro-[1,4]dioxino[2,3-f]quinolin-10-yl)oxy)-2-methylphenyl)-3-(4-fluorophenyl)-1-methyl-2,4-dioxo-1,2,3,4-tetrahydropyrimidine-5-carboxamide]",50 to 200,
≤ 50,"CCn1cc(C(=O)Nc2cc(F)c(Oc3ccnc4cc(OCCOC)c5c(c34)OCCO5)cc2C)c(=O)n(-c2ccc(F)cc2)c1=O [Example 180, N-(5-fluoro-4-((5-(2-methoxyethoxy)-2,3-dihydro-[1,4]dioxino[2,3-f]quinolin-10-yl)oxy)-2-methylphenyl)-3-(4-fluorophenyl)-1-ethyl-2,4-dioxo-1,2,3,4-tetrahydropyrimidine-5-carboxamide]",≤ 50,

# Reference: patent US12202835B2, “Substituted aromatic ring-linked dioxinoquinazolines and dioxinoquinolines as kinase inhibitors” (BEIJING SCITECH-MQ PHARMACEUTICALS LIMITED, priority 2018, dated 2025)
